According to patent publication US20040029965A1, “Formulations for reducing or eliminating toxicity of enviromental hormones containing ursodeoxycholic acid” (priority 2000, published 2004):

Key:
C57B1/6J mice [1] = assay: Water uptake of mice after a single subcutaneous injection of TCDD; format: in vivo; set-up: unit not given here
Protocol: (§1) Male C57B1/6J mice of 5 weeks old having the average weight of 18-22 g which had been bred in CRJ (Charles River in Japan) were purchased and used in this example as experimental animals. Those mice were acclimated under the constant breeding condition, i.e. the temperature of 24±1° C., the humidity of 60±10% and the light and darkness cycle of 12 hours, for one week and thereafter, utilized in the experiment.
(§2) The Experimental animals were supplied with Purina powdered feed (purchased from Hae Eun Trade) and supplied with water ad libitum. All the animals were weighed twice a week during experimentation.
(§3) 2,3,7,8-tetrachlorodibenzo-p-dioxin (TCDD) dissolved in toluene (purity of 95% or more as a result of gas chromatography analysis), manufactured by Chem. Services Inc. in USA, was volatilized with nitrogen to obtain powder. The obtained powder was dissolved in a mixed solvent containing acetone and corn oil with a volume ratio of 1:6. The resulting solution each containing 110, 27.5 and 6.9 μg/kg of TCDD was subcutaneously injected to mice at a volume of 5 ml per body weight. […] The mice were supplied with the feed from 10 days before (pre-administration) to 60 days after administration of TCDD (post-administration).
(§4) The results are expressed as Mean±Standard Deviation values. For statistical analysis of the body weight, feed and water uptake, biochemical findings, hematological findings and the weight of organ in an acute toxicity test, verification was performed by one way analysis of variance (ANOVA) in case of equal distribution. In case significance was recognized in ANOVA, the Student's t-test was performed in the levels of p<0.05 and p<0.01.

C57B1/6J mice [2] = assay: Changes in body weight of mice after a single subcutaneous injection of TCDD; format: in vivo
Protocol: as §1, §2, §3, §4

[3] = TCDD 6.9 μg/kg + UDCA 0.125 wt %, 50 days

Molecule `C[C@H](CCC(=O)O)[C@H]1CC[C@H]2[C@@H]3[C@@H](O)C[C@@H]4C[C@H](O)CC[C@]4(C)[C@H]3CC[C@]12C` [UDCA, 3α, 7β-dihydroxy-5β-cholanoic acid] has a water uptake (C57B1/6J mice [1]; TCDD 6.9 μg/kg + UDCA 0.125 wt %, 10 days) of 4.54 ± 0.71, a water uptake (C57B1/6J mice [1]; TCDD 6.9 μg/kg + UDCA 0.125 wt %, 20 days) of 3.75 ± 0.90 and a water uptake (C57B1/6J mice [1]; TCDD 6.9 μg/kg + UDCA 0.125 wt %, 30 days) of 4.00 ± 0.00. For the same molecule, the water uptake (C57B1/6J mice [1]; TCDD 6.9 μg/kg + UDCA 0.125 wt %, 40 days) was 4.00 ± 0.00, the water uptake (C57B1/6J mice [1]; [3]) was 4.06 ± 1.34 and the water uptake (C57B1/6J mice [1]; TCDD 6.9 μg/kg + UDCA 0.125 wt %, 60 days) was 4.64 ± 0.51. For the same molecule, the water uptake (C57B1/6J mice [1]; TCDD 6.9 μg/kg + UDCA 0.25 wt %, 10 days) was 4.27 ± 1.16, the water uptake (C57B1/6J mice [1]; TCDD 6.9 μg/kg + UDCA 0.25 wt %, 20 days) was 3.83 ± 1.04 and the water uptake (C57B1/6J mice [1]; TCDD 6.9 μg/kg + UDCA 0.25 wt %, 30 days) was 4.00 ± 0.00. It also gave a water uptake (C57B1/6J mice [1]; TCDD 6.9 μg/kg + UDCA 0.25 wt %, 40 days) of 3.60 ± 0.57, a water uptake (C57B1/6J mice [1]; TCDD 6.9 μg/kg + UDCA 0.25 wt %, 50 days) of 4.28 ± 1.02 and a water uptake (C57B1/6J mice [1]; TCDD 6.9 μg/kg + UDCA 0.25 wt %, 60 days) of 4.69 ± 0.43. The water uptake (C57B1/6J mice [1]; TCDD 6.9 μg/kg + UDCA 0.5 wt %, 10 days) was 4.12 ± 0.94, the water uptake (C57B1/6J mice [1]; TCDD 6.9 μg/kg + UDCA 0.5 wt %, 20 days) was 3.80 ± 0.70 and the water uptake (C57B1/6J mice [1]; TCDD 6.9 μg/kg + UDCA 0.5 wt %, 30 days) was 4.00 ± 0.63. It also gave a water uptake (C57B1/6J mice [1]; TCDD 6.9 μg/kg + UDCA 0.5 wt %, 40 days) of 3.78 ± 0.31, a water uptake (C57B1/6J mice [1]; TCDD 6.9 μg/kg + UDCA 0.5 wt %, 50 days) of 4.35 ± 1.08 and a water uptake (C57B1/6J mice [1]; TCDD 6.9 μg/kg + UDCA 0.5 wt %, 60 days) of 5.06 ± 0.70. For the same molecule, the water uptake (C57B1/6J mice [1]; TCDD 27.5 μg/kg + UDCA 0.125 wt %, 10 days) was 3.67 ± 1.10, the water uptake (C57B1/6J mice [1]; TCDD 27.5 μg/kg + UDCA 0.125 wt %, 20 days) was 3.92 ± 1.13 and the water uptake (C57B1/6J mice [1]; TCDD 27.5 μg/kg + UDCA 0.125 wt %, 30 days) was 4.30 ± 0.42. For the same molecule, the water uptake (C57B1/6J mice [1]; TCDD 27.5 μg/kg + UDCA 0.125 wt %, 40 days) was 4.20 ± 0.28, the water uptake (C57B1/6J mice [1]; TCDD 27.5 μg/kg + UDCA 0.125 wt %, 50 days) was 4.44 ± 0.79 and the water uptake (C57B1/6J mice [1]; TCDD 27.5 μg/kg + UDCA 0.125 wt %, 60 days) was 4.81 ± 0.26. It also gave a water uptake (C57B1/6J mice [1]; TCDD 27.5 μg/kg + UDCA 0.25 wt %, 10 days) of 4.04 ± 0.75, a water uptake (C57B1/6J mice [1]; TCDD 27.5 μg/kg + UDCA 0.25 wt %, 20 days) of 3.92 ± 0.63 and a water uptake (C57B1/6J mice [1]; TCDD 27.5 μg/kg + UDCA 0.25 wt %, 30 days) of 4.00 ± 0.00. For the same molecule, the water uptake (C57B1/6J mice [1]; TCDD 27.5 μg/kg + UDCA 0.25 wt %, 40 days) was 4.00 ± 0.00, the water uptake (C57B1/6J mice [1]; TCDD 27.5 μg/kg + UDCA 0.25 wt %, 50 days) was 4.44 ± 0.79 and the water uptake (C57B1/6J mice [1]; TCDD 27.5 μg/kg + UDCA 0.25 wt %, 60 days) was 4.81 ± 0.26. It also gave a water uptake (C57B1/6J mice [1]; TCDD 27.5 μg/kg + UDCA 0.5 wt %, 10 days) of 3.91 ± 0.95, a water uptake (C57B1/6J mice [1]; TCDD 27.5 μg/kg + UDCA 0.5 wt %, 20 days) of 4.35 ± 0.98 and a water uptake (C57B1/6J mice [1]; TCDD 27.5 μg/kg + UDCA 0.5 wt %, 30 days) of 4.44 ± 0.00. It also gave a water uptake (C57B1/6J mice [1]; TCDD 27.5 μg/kg + UDCA 0.5 wt %, 40 days) of 4.44 ± 0.00, a water uptake (C57B1/6J mice [1]; TCDD 27.5 μg/kg + UDCA 0.5 wt %, 50 days) of 4.41 ± 1.00 and a water uptake (C57B1/6J mice [1]; TCDD 27.5 μg/kg + UDCA 0.5 wt %, 60 days) of 4.88 ± 0.33. It also gave a water uptake (C57B1/6J mice [1]; TCDD 110.0 μg/kg + UDCA 0.125 wt %, 10 days) of 4.03 ± 1.21, a water uptake (C57B1/6J mice [1]; TCDD 110.0 μg/kg + UDCA 0.125 wt %, 20 days) of 4.07 ± 0.64 and a water uptake (C57B1/6J mice [1]; TCDD 110.0 μg/kg + UDCA 0.125 wt %, 30 days) of 3.33 ± 0.94. It also gave a water uptake (C57B1/6J mice [1]; TCDD 110.0 μg/kg + UDCA 0.25 wt %, 10 days) of 3.79 ± 1.06, a water uptake (C57B1/6J mice [1]; TCDD 110.0 μg/kg + UDCA 0.25 wt %, 20 days) of 3.83 ± 0.14 and a water uptake (C57B1/6J mice [1]; TCDD 110.0 μg/kg + UDCA 0.25 wt %, 30 days) of 4.67 ± 0.94. It also gave a water uptake (C57B1/6J mice [1]; TCDD 110.0 μg/kg + UDCA 0.25 wt %, 40 days) of 4.14 ± 0.20, a water uptake (C57B1/6J mice [1]; TCDD 110.0 μg/kg + UDCA 0.5 wt %, 10 days) of 3.75 ± 0.50 and a water uptake (C57B1/6J mice [1]; TCDD 110.0 μg/kg + UDCA 0.5 wt %, 20 days) of 3.42 ± 0.80. The water uptake (C57B1/6J mice [1]; TCDD 110.0 μg/kg + UDCA 0.5 wt %, 30 days) was 4.20 ± 0.28, the water uptake (C57B1/6J mice [1]; TCDD 110.0 μg/kg + UDCA 0.5 wt %, 40 days) was 3.50 ± 0.71 and the water uptake (C57B1/6J mice [1]; TCDD 110.0 μg/kg + UDCA 0.5 wt %, 50 days) was 3.14 ± 0.59. For the same molecule, the water uptake (C57B1/6J mice [1]; TCDD 110.0 μg/kg + UDCA 0.5 wt %, 60 days) was 3.32 ± 0.33, the body weight (C57B1/6J mice [2]; TCDD 6.9 μg/kg + UDCA 0.125 wt %, 0 day) was 19.77 ± 0.21 and the body weight (C57B1/6J mice [2]; TCDD 6.9 μg/kg + UDCA 0.125 wt %, 12 days) was 21.95 ± 0.28. For the same molecule, the body weight (C57B1/6J mice [2]; TCDD 6.9 μg/kg + UDCA 0.125 wt %, 22 days) was 23.16 ± 0.32, the body weight (C57B1/6J mice [2]; TCDD 6.9 μg/kg + UDCA 0.125 wt %, 32 days) was 24.15 ± 0.38 and the body weight (C57B1/6J mice [2]; TCDD 6.9 μg/kg + UDCA 0.125 wt %, 39 days) was 25.21 ± 0.46. For the same molecule, the body weight (C57B1/6J mice [2]; [3]) was 26.62 ± 0.56, the body weight (C57B1/6J mice [2]; TCDD 6.9 μg/kg + UDCA 0.125 wt %, 59 days) was 27.06 ± 0.60 and the “Weight (body weight)” value (C57B1/6J mice [2]; TCDD 6.9 μg/kg + UDCA 0.125 wt %, at sacrifice) was 24.12 ± 1.83 g. The body weight (C57B1/6J mice [2]; TCDD 6.9 μg/kg + UDCA 0.25 wt %, 0 day) was 20.13 ± 0.34.
